How the values were obtained:
Test in all cases: relative viability (nuclei count vs DMSO), 5 days (fraction); higher = more cells survive
IPA-3 + Alpelisib = compound: C1=CC=C2C(=C1)C=CC(=C2SSC3=C(C=CC4=CC=CC=C43)O)O [IPA-3] + Cc1nc(NC(=O)N2CCC[C@H]2C(N)=O)sc1-c1ccnc(C(C)(C)C(F)(F)F)c1 [Alpelisib] (partner 2 µM)
Outline: (§1)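 Lung cancer cell lines in 1536-well plates got either a single drug or a fixed anchor-drug dose together with five library-drug doses (not always all listed) in √10 steps, by pin tool, on the day after seeding. Nuclei were counted after 5 days, and relative viability is the treated-to-vehicle ratio of nuclei counts. Values are medians of duplicate plates.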

Doramapimod + Trametinib = compound: Cc1ccc(-n2nc(C(C)(C)C)cc2NC(=O)Nc2ccc(OCCN3CCOCC3)c3ccccc23)cc1 [Doramapimod] + CC(=O)Nc1cccc(-n2c(=O)n(C3CC3)c(=O)c3c(Nc4ccc(I)cc4F)n(C)c(=O)c(C)c32)c1 [Trametinib] (partner 0.02 µM)
Outline: as §1

RAF265 + Lapatinib = compound: Cn1c(Nc2ccc(C(F)(F)F)cc2)nc2cc(Oc3ccnc(-c4ncc(C(F)(F)F)[nH]4)c3)ccc21 [RAF265] + CS(=O)(=O)CCNCc1ccc(-c2ccc3ncnc(Nc4ccc(OCc5cccc(F)c5)c(Cl)c4)c3c2)o1 [Lapatinib] (partner 2 µM)
Outline: as §1

Doramapimod + Olaparib = compound: Cc1ccc(-n2nc(C(C)(C)C)cc2NC(=O)Nc2ccc(OCCN3CCOCC3)c3ccccc23)cc1 [Doramapimod] + O=C(c1cc(Cc2n[nH]c(=O)c3ccccc23)ccc1F)N1CCN(C(=O)C2CC2)CC1 [Olaparib] (partner 8 µM)
Outline: as §1

Cell Line	relative viability (IPA-3 + Alpelisib; first compound 0.2 µM)	relative viability (IPA-3 + Alpelisib; first compound 0.6325 µM)	relative viability (IPA-3 + Alpelisib; first compound 2 µM)	relative viability (IPA-3 + Alpelisib; first compound 6.325 µM)	relative viability (IPA-3 + Alpelisib; first compound 20 µM)	relative viability (Doramapimod + Trametinib; first compound 0.02 µM)	relative viability (Doramapimod + Trametinib; first compound 0.06325 µM)	relative viability (Doramapimod + Trametinib; first compound 0.2 µM)	relative viability (Doramapimod + Trametinib; first compound 0.6325 µM)	relative viability (Doramapimod + Trametinib; first compound 2 µM)	relative viability (RAF265 + Lapatinib; first compound 0.01 µM)	relative viability (RAF265 + Lapatinib; first compound 0.03162 µM)	relative viability (RAF265 + Lapatinib; first compound 0.1 µM)	relative viability (RAF265 + Lapatinib; first compound 0.3162 µM)	relative viability (RAF265 + Lapatinib; first compound 1 µM)	relative viability (Doramapimod + Olaparib; first compound 0.02 µM)	relative viability (Doramapimod + Olaparib; first compound 0.06325 µM)	relative viability (Doramapimod + Olaparib; first compound 0.2 µM)	relative viability (Doramapimod + Olaparib; first compound 0.6325 µM)	relative viability (Doramapimod + Olaparib; first compound 2 µM)
LU99A	0.551	0.451	0.512	0.531	0.528	0.501	0.511	0.545	0.645	0.477	1.02	0.838	0.61	0.496	0.324	0.273	0.304	0.27	0.259	0.256
LXF-289	1.08	0.978	1.03	1.02	1.13	0.684	0.647	0.676	0.665	0.657	0.942	0.953	0.858	0.785	0.743	1.03	1.01	1.05	1.08	1.02
NCI-H23	0.694	0.577	0.73	0.645	0.805	0.287	0.346	0.402	0.415	0.376	1.2	0.87	0.75	0.545	0.409	0.397	0.352	0.417	0.335	0.311
NCI-H322M	0.867	0.823	0.759	0.0386	0.901	0.429	0.519	0.541	0.524	0.498	0.579	0.529	0.481	0.342	0.258	0.849	0.827	0.864	0.857	0.884
NCI-H358	1.01	0.843	0.791	0.803	1.19	0.163	0.137	0.124	0.15	0.156	0.491	0.524	0.336	0.434	0.341	0.54	0.565	0.516	0.676	0.511
NCI-H460	0.711	0.409	0.46	0.479	0.426	0.163	0.143	0.135	0.159	0.105	1.01	0.934	0.853	–	0.646	0.453	0.431	0.422	0.459	0.419
NCI-H520	1.08	0.949	0.784	0.847	0.753	0.648	0.59	0.72	0.723	0.536	0.894	0.873	0.776	0.694	0.498	0.336	0.359	0.354	0.364	0.305
NCI-H596	0.527	0.562	0.475	0.523	0.558	0.802	0.845	0.915	0.852	0.806	1.09	1.09	1.11	0.897	0.743	0.747	0.695	0.749	0.73	0.788
NCI-H647	1.49	1.06	1.18	0.537	0.11	0.468	0.445	0.481	0.6	0.523	1.19	0.937	0.828	0.711	0.809	0.475	0.488	0.509	0.443	0.444
NCI-H650	1.43	1.11	1.18	1.04	1.55	0.963	0.977	0.988	1.05	0.978	0.959	0.849	0.922	0.602	0.328	0.468	0.47	0.403	0.413	0.395
NCI-H661	0.693	0.682	0.801	0.765	1.07	0.642	0.58	0.598	0.732	0.512	0.539	0.466	0.532	0.442	0.308	0.797	0.756	0.785	0.717	0.75
NCI-H727	0.629	0.559	0.593	0.676	0.621	0.389	0.395	0.406	0.4	0.32	0.915	0.736	0.963	1.1	0.371	0.711	0.723	0.772	0.726	0.595
NCI-H838	1.25	0.948	1.05	1.06	1.16	0.493	0.549	0.506	0.56	0.411	1.02	0.927	0.972	0.971	0.885	0.794	0.833	0.811	0.873	0.737
NCI-H1355	0.918	0.782	0.809	0.797	0.802	0.456	0.393	0.376	0.43	0.408	1.07	0.969	0.842	0.85	0.596	0.76	0.732	0.708	0.721	0.7
NCI-H1395	1.06	1.29	1.04	1.26	1.01	0.999	0.967	1.05	1.08	0.946	1.41	0.943	0.957	0.942	0.912	0.463	0.462	0.466	0.498	0.421
NCI-H1437	1.32	0.938	1.11	0.974	1.27	0.477	0.486	0.423	0.423	0.486	0.897	0.776	0.77	0.784	0.78	0.645	0.641	0.654	0.657	0.637
NCI-H1651	1.01	–	0.912	0.904	1.15	0.811	0.865	0.823	0.792	0.825	0.931	0.797	0.864	0.669	0.644	0.203	0.19	0.17	0.204	0.194
NCI-H1666	1.09	0.978	1	1.12	0.844	0.84	0.895	0.936	0.907	0.795	1.06	0.629	0.856	0.791	0.53	0.844	0.743	0.751	0.775	0.748
NCI-H1734	0.733	0.594	0.692	0.677	0.822	0.599	0.611	0.599	0.587	0.514	1.08	0.854	0.866	0.806	0.485	0.572	0.595	0.587	0.573	0.497
NCI-H1755	1.11	0.918	0.908	0.939	1.03	0.849	0.887	0.751	0.761	0.714	1.06	1.06	1.03	0.974	0.622	0.865	0.85	0.847	0.811	0.829
NCI-H1792	0.729	0.668	0.703	0.646	0.794	0.446	0.407	0.379	0.374	0.27	0.928	0.843	0.946	0.913	0.593	0.408	0.459	0.457	0.486	0.268
NCI-H1793	0.786	0.677	0.757	0.739	0.785	0.418	0.435	0.408	0.377	0.406	0.652	0.658	0.631	0.296	0.512	0.741	0.816	0.768	1.08	0.821
NCI-H1915	1.17	1.05	1.09	1.03	1.07	0.303	0.313	0.311	0.311	0.277	0.968	0.92	0.909	0.715	0.371	0.285	0.287	0.252	0.254	0.233
NCI-H1944	0.836	0.832	0.958	0.942	0.983	0.387	0.343	0.43	0.419	0.396	0.79	0.966	0.924	0.75	0.562	0.394	0.434	0.438	0.409	0.371
NCI-H1975	0.644	0.65	0.628	0.753	0.708	0.337	0.307	0.348	0.4	0.331	0.809	0.791	0.618	0.469	0.412	0.717	0.85	0.864	0.768	0.82
NCI-H1993	0.742	0.6	0.616	0.66	0.594	0.458	0.504	0.622	0.45	0.434	0.789	0.833	0.995	0.908	0.967	0.983	0.908	1.14	1.07	0.794
